Laboratory results from ChEMBL document CHEMBL1201862, “PubChem BioAssay data set” (2004).
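Where inhibition never reached the appropriate level, the endpoint shown equals the highest concentration tested. Otherwise, values were interpolated linearly from a five-concentration, 48-hour dose response in 96-well plates. At the GI50, growth is halved.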 Calls of active or inactive are those of the source. No stated cut-off is given here; in the data, active = GI50 up to about 1.1 µM and inactive = higher. Square brackets hold non-standard residues; d marks the D form. Peptide text beside a SMILES is read from it. * marks the point of attachment. X26 = COC1=CC(=O)N(C(=O)[C@@H](O*)C(C)C)[C@H]1Cc1ccccc1; Bn2Val = CC(C)[C@@H](C(=O)*)N(Cc1ccccc1)Cc1ccccc1; NMeV = CN[C@H](C(=O)O)C(C)C; dNMeA = CN[C@H](C)C(=O)O

Tests used:
Test in all cases: NCI anticancer screen, dose series, 48 h
[1] = system: DU-145
[2] = system: HCT-116
[3] = system: K562
[4] = system: NCI-H460
[5] = system: OVCAR-5
[6] = system: PC-3
[7] = system: SF-295
[8] = system: SF-539
[9] = system: SK-MEL-2
[10] = system: SN12C
[11] = system: SNB-19
[12] = system: SW-620
[13] = system: U-251
[14] = system: UACC-257
[15] = system: UACC-62
[16] = system: UO-31
[17] = system: HL-60
[18] = system: Malme-3M
[19] = system: NCI-H226
[20] = system: NCI-H522

Measured: GI50

CC(C)(C)N1C(=O)[N-]/[N+](=C(/C(c2ccccc2)=[N+]2/[N-]C(=O)N(C(C)(C)C)C2=O)c2ccccc2)C1=O
inactive: [1] > 100 µM | [2] > 100 µM | [3] > 100 µM | [4] > 100 µM | [5] > 100 µM | [6] > 100 µM | [7] > 100 µM | [8] > 100 µM | [9] > 100 µM | [10] > 100 µM | [11] > 100 µM | [12] > 100 µM | [13] > 100 µM | [14] > 100 µM | [15] > 100 µM | [16] > 100 µM

COc1ccc(/C=C2\CCC(C)C3=C2N=c2s/c(=C/c4cccc(Br)c4)c(=O)n2C3c2ccc(OC)c(OC)c2)cc1OC (centres undefined)
inactive: [1] > 100 µM | [2] > 100 µM | [17] > 100 µM | [3] > 100 µM | [5] > 100 µM | [6] > 100 µM | [9] > 100 µM | [10] > 100 µM | [11] > 100 µM | [12] > 100 µM | [13] > 100 µM | [14] > 100 µM | [15] > 100 µM

CC(=O)NNc1nc(C)c(C(/C=C/c2ccc3c(c2)OCO3)=N/NC(=O)c2ccncc2)s1
inactive: [2] > 100 µM | [17] > 100 µM | [3] > 100 µM | [18] > 100 µM | [19] > 100 µM | [4] > 100 µM | [20] > 100 µM | [5] > 100 µM | [6] > 100 µM | [7] > 100 µM | [8] > 100 µM | [9] > 100 µM | [10] > 100 µM | [11] > 100 µM | [12] > 100 µM | [13] > 100 µM | [14] > 100 µM | [15] > 100 µM | [16] > 100 µM

Cc1c(/C=N\NC(=S)N(C)CCN(C)C(=S)N/N=C\c2c(C)n(C)n(-c3ccccc3)c2=O)c(=O)n(-c2ccccc2)n1C
inactive: [1] > 100 µM | [2] > 100 µM | [18] 55.7 µM | [19] > 100 µM | [4] > 100 µM | [20] 41.7 µM | [5] > 100 µM | [6] > 100 µM | [7] > 100 µM | [8] > 100 µM | [9] > 100 µM | [11] > 100 µM | [12] > 100 µM | [13] > 100 µM | [14] > 100 µM | [15] > 100 µM | [16] > 100 µM

CCOC(=O)C(=Cc1[nH]c2ccccc2c1-c1c[nH]c2ccccc12)C(=O)OCC
inactive: [1] 14.1 µM | [2] 10.8 µM | [3] 4.12 µM | [18] 18.7 µM | [19] 14 µM | [4] 12.6 µM | [20] 54.7 µM | [5] 15.1 µM | [6] 10.3 µM | [7] 12.1 µM | [8] 18.5 µM | [9] 11.7 µM | [10] 15 µM | [11] 14.2 µM | [13] 11.7 µM | [14] 10.4 µM | [15] 4.88 µM | [16] 13.5 µM

COC1=CC(=O)N(C(=O)[C@@H](OC(=O)[C@@H](C)N(C)C(=O)[C@@H]2CCCN2C(=O)[C@H](C(C)C)N(C)C(=O)[C@@H](NC(=O)[C@H](C(C)C)N(Cc2ccccc2)Cc2ccccc2)C(C)C)C(C)C)[C@H]1Cc1ccccc1 (Bn2Val-V[NMeV]P[dNMeA]-X26)
inactive: [1] > 100 µM | [2] 4.32 µM | [3] 6.78 µM | [18] > 59.6 µM | [19] > 26.3 µM | [4] > 100 µM | [20] > 100 µM | [5] > 100 µM | [6] 6.3 µM | [7] > 71.3 µM | [8] > 37.2 µM | [9] > 50.7 µM | [10] > 100 µM | [11] > 90.2 µM | [12] > 100 µM | [13] 11.4 µM | [14] > 26.1 µM | [15] > 60.7 µM | [16] 6.44 µM

COC[C@H](Cc1ccccc1)/N=C/c1ccccc1
inactive: [1] > 100 µM | [2] > 100 µM | [3] > 100 µM | [18] > 100 µM | [4] > 100 µM | [20] > 100 µM | [5] > 100 µM | [6] > 100 µM | [7] > 100 µM | [9] > 100 µM | [10] > 100 µM | [11] > 100 µM | [12] > 100 µM | [13] > 100 µM | [14] > 100 µM | [15] > 100 µM | [16] > 100 µM

CCCNc1c(Cl)cc(Cl)c2[nH]c3ccccc3c(=O)c12
inactive: [2] 43.6 µM | [17] 16.2 µM | [3] 28.3 µM | [18] 43.3 µM | [19] 38.2 µM | [20] 37.1 µM | [5] > 100 µM | [6] 37.1 µM | [7] 34.8 µM | [8] 32.4 µM | [9] 39.9 µM | [10] 95.9 µM | [11] 18.4 µM | [12] 88.5 µM | [13] 37.1 µM | [14] 48.3 µM | [15] 45.5 µM | [16] 32.1 µM

COP1(=O)OCc2cnccc2O1 (centres undefined)
inactive: [2] > 100 µM | [3] > 100 µM | [18] > 100 µM | [19] > 100 µM | [4] > 100 µM | [20] > 100 µM | [5] > 100 µM | [6] > 100 µM | [7] > 100 µM | [8] > 100 µM | [9] > 100 µM | [10] > 100 µM | [11] > 100 µM | [12] > 100 µM | [13] > 100 µM | [14] > 100 µM | [15] > 100 µM | [16] > 100 µM

CC1N[B@@-](C)(c2ccc(C(F)(F)F)cc2)OC1c1ccccc1 (some centres undefined)
inactive: [1] > 100 µM | [2] 89.3 µM | [17] 12.7 µM | [3] 66.2 µM | [18] 86.3 µM | [19] > 100 µM | [4] > 100 µM | [5] > 100 µM | [6] 53.3 µM | [7] > 100 µM | [10] > 100 µM | [11] > 100 µM | [12] > 100 µM | [13] > 100 µM | [14] > 100 µM | [15] > 100 µM | [16] 34.7 µM

CC(=O)[C@@H]1[C@@H](OC(=O)CCC(C)COC2OC(CO)C(O)C(O)C2O)C[C@H]2[C@@H]3CC=C4C[C@@H](OC5OC(CO)C(OC6OC(C)C(O)C(O)C6O)C(O)C5OC5OC(C)C(O)C(O)C5O)CC[C@]4(C)[C@H]3CC[C@]12C (some centres undefined)
inactive: [1] > 100 µM | [2] > 100 µM | [3] > 100 µM | [18] 52.5 µM | [4] > 100 µM | [20] 35.2 µM | [5] > 100 µM | [6] > 100 µM | [7] > 100 µM | [9] > 100 µM | [10] > 100 µM | [11] > 100 µM | [12] 64.7 µM | [13] > 100 µM | [14] > 100 µM | [15] > 100 µM | [16] > 100 µM
